Test results published in US20030216327A1, “Sapogenin-based treatment” (L'OREAL, priority 2002, published 2003).

Tested on: immortalized human sebocytes derived from the SZ95 line
Test: Lipid production by immortalized human sebocytes in culture (Nile Red fluorescence)
Format: cell-based
Conditions: treatment for two days; for VARIATION IN LIPIDS (compared to control): total lipids (neutral + non-neutral), Nile Red, 0.1% DMSO
Experimental: Hecogenin and diosgenin, provided by SIGMA, were tested on a model of immortalized human sebocytes in culture, derived from the SZ95 line described in C. C. Zouboulis, H. Seltmann, H. Neitzel & C. E. Orfanos, Establishment and Characterization of an Immortalized Human Sebaceous Gland Cell Line, J. Invest. Dermatol., 113, 1011-1020 (1999).
The test consisted in measuring the amount of lipids produced by the sebocytes of the line (at confluency), in the presence or absence of active agents, diluted in DMSO such that the final amount of DMSO in the culture medium is 0.1%. After treatment for two days, the adherent cells are treated with Nile Red (1 μg/ml). The lipid content is then quantified by measuring the fluorescence of the dye (two excitation/emission couples: 485-540 nm for the neutral lipids and 540-620 nm for the non-neutral lipids). The results are given for the total lipids (combination of the two measurements).
The experiment was carried out in triplicate (assay products and control) in a 96-well plate and repeated three times.

C[C@]12CC[C@H](O)CC1=CC[C@@H]1[C@@H]2CC[C@]2(C)C(=O)CC[C@@H]12 [DHEA]
activity on lipid content (lipogenesis) (0.1 μM, same test, total lipids): inactive
increase in the lipid content of the sebum (10 μM, same test, total lipids): 13%

C[C@@H]1CC[C@@]2(OC1)O[C@H]1C[C@H]3[C@@H]4CC=C5C[C@@H](O)CC[C@]5(C)[C@H]4CC[C@]3(C)[C@H]1[C@@H]2C [Diosgenin]
VARIATION IN LIPIDS (compared to control) (0.1 μM): +4%

C[C@@H]1CC[C@@]2(OC1)O[C@H]1C[C@H]3[C@@H]4CC[C@@]5(C)C[C@@H](O)CC[C@]5(C)[C@H]4CC(=O)[C@]3(C)[C@H]1[C@@H]2C [Hecogenin]
VARIATION IN LIPIDS (compared to control) (0.1 μM): +5%
